Test results published in patent publication US11072741B2, “Optically anisotropic layer, method for producing the optically anisotropic layer, a laminate, polarizing plate, display device, liquid crystal compound, method for producing the liquid crystal compound, and carboxylic acid compound” (FUJIFILM Corporation, priority 2014, dated 2021).

Legend:
[1] = Measurement and evaluation of solubility in MEK and CPN; assay type: physicochemical; parameters: key to Solubility Evaluation: A: solubility improved twofold or greater in plural solvents or a single solvent; B: solubility was the same or improved up to twofold in plural solvents or a single solvent; C: no improvement in solubility in plural solvents or a single solvent; details: for Solubility CPN wt %: cyclopentanone; for Solubility CPN wt % / Solubility MEK wt %: room temperature, visual observation, 5 wt % increments; for Solubility MEK wt %: methyl ethyl ketone; for Solubility Evaluation: versus comparative compound with the same Ar and side chain portion of Formula (Ia)
Protocol: Solubility measurements of the synthesized liquid crystal compounds were conducted by the following method. 50 mg of each compound was weighted into a 1.5 mL sample bottle, and solvent was added until the solid component became 40 wt % (75 mg). The solubility was determined to be 40 wt % if clear under visual observation after shaking well manually at room temperature. If undissolved residue was present, solvent was added such that the solid component became 35 wt % (+18 mg). The solubility was determined to be 35 wt % if clear under visual observation after shaking well manually at room temperature. If undissolved residue was present, solvent was added such that the solid component became 30 wt %. Similar operations were performed in increments of 5 wt %, and repeated until the solid component became 5 wt %. If undissolved residue was present, the solubility was determined to be less than 5 wt % (<5 wt %), and measurements were completed. MEK (methyl ethyl ketone) and CPN (cyclopentanone) were utilized as solvents for measuring solubility.
The measured values of solubility were evaluated. The evaluations were conducted by using solubility of a compound of a Comparative Example having Ar (the aromatic ring at the center of General Formula 1) in common with the Examples and a side chain portion represented by Formula (Ia) as a reference, in a manner similar to that in the evaluation of the phase transition temperature. Evaluations of A through C were assigned according to the degree of improvement in solubility from the reference solubility.
(§1) For example, compound (I-1) and (I-2) were compared to Comparative Compound (Ia-1), and Compound (III-3) was compared to Comparative Compound (IIIa-3). The evaluation was carried out based on the following criteria.
A: solubility improved twofold or greater in plural solvents or a single solvent
B: solubility was the same or improved up to twofold in plural solvents or a single solvent
C: no improvement in solubility in plural solvents or a single solvent

[2] = Evaluation of phase transition temperature by polarizing microscope; assay type: physicochemical; details: for TNi(° C.) Isotropic Phase Transition Point / Tsm—N(° C.) Sm—N Transition Point: during temperature increase; for Phase Transition Temperature Evaluation of Decrease: versus comparative compound with the same Ar and side chain portion of Formula (Ia)
Excerpt: Here, the temperature at which the compound transitions from the smectic phase to the nematic phase may be easily measured by observation of the composition employing polarized light microscopy. For example, in the nematic phase, a schlieren texture specific to the nematic phase is observed, while the texture transitions to a focal conic fan texture in a smectic A phase. Therefore, the phase transition temperature can be measured by observing the textures with a polarizing microscope while increasing or decreasing the temperature.
The phase transition temperatures of the synthesized liquid crystal compounds of the Examples and Comparative Examples were observed using a polarizing microscope to evaluate the degrees of temperature decrease. Specifically, the compounds of the Examples were compared to the compounds of the Comparative Examples, which have different structures for the side chain portions thereof. That is, the phase transition temperature of a compound of a Comparative Example having Ar (the aromatic ring at the center of General Formula 1) in common with the Examples and a side chain portion represented by Formula (Ia) below was used as a reference. Evaluations of A through C were assigned according to the degree of temperature decrease from the reference phase transition temperature.
as §1
A: decrease in melting point or Sm-N (smectic-nematic) transition temperature is 20° C. or greater
B: decrease in melting point or Sm-N (smectic-nematic) transition temperature is 5° C. or greater and less than 20° C.
C: decrease in melting point or Sm-N (smectic-nematic) transition temperature is less than 5° C.
With respect to the phase transition temperature, the numerical value in parentheses represents the numerical value during temperature decrease, and other numerical values represent a numerical value during temperature increase.

Structure (SMILES)	melting point [°C]	Solubility CPN wt % [1] [wt %]	Solubility MEK wt % [1] [wt %]	Solubility Evaluation [1]	TNi(° C.) Isotropic Phase Transition Point [2]	Phase Transition Temperature Evaluation of Decrease [2]	Tsm—N(° C.) Sm—N Transition Point [2] [°C]
N#CC(C#N)=C1Sc2c(OC(=O)[C@H]3CC[C@H](C(=O)Oc4ccc(CCOC(=O)CCCCCCCCC5CO5)cc4)CC3)ccc(OC(=O)[C@H]3CC[C@H](C(=O)Oc4ccc(CCOC(=O)CCCCCCCCC5CO5)cc4)CC3)c2S1 (some centres unmarked) [Compound I-15]	127	25	10	A (solubility improved twofold or greater in plural solvents or a single solvent)	190 °C	A (decrease in melting point or Sm-N (smectic-nematic) transition temperature is 20 °C or greater)	
C=CC(=O)OCCCCOC(=O)Cc1ccc(OC(=O)[C@H]2CC[C@H](C(=O)Oc3ccc(OC(=O)[C@H]4CC[C@H](C(=O)Oc5ccc(CC(=O)OCCCCOC(=O)C=C)cc5)CC4)c4c3SC(=C(C#N)C#N)S4)CC2)cc1 [II-8]	102	20	10	A (solubility improved twofold or greater in plural solvents or a single solvent)	176 °C	A (decrease in melting point or Sm-N (smectic-nematic) transition temperature is 20 °C or greater)	138
C=CC(=O)OCCOC(=O)Cc1ccc(OC(=O)[C@H]2CC[C@H](C(=O)Oc3ccc(OC(=O)[C@H]4CC[C@H](C(=O)Oc5ccc(CC(=O)OCCOC(=O)C=C)cc5)CC4)c4c3SC(=C(C#N)C#N)S4)CC2)cc1 [II-9]	116	15	5	B (solubility was the same or improved up to twofold in plural solvents or a single solvent)	210 °C	A (decrease in melting point or Sm-N (smectic-nematic) transition temperature is 20 °C or greater)	122
C=CC(=O)OCCOC(=O)CCC(=O)OCCc1ccc(OC(=O)[C@H]2CC[C@H](C(=O)Oc3ccc(OC(=O)[C@H]4CC[C@H](C(=O)Oc5ccc(CCOC(=O)CCC(=O)OCCOC(=O)C=C)cc5)CC4)c4c3SC(=C(C#N)C(=O)OC)S4)CC2)cc1 [III-3]	100	20	10	A (solubility improved twofold or greater in plural solvents or a single solvent)	118 °C	A (decrease in melting point or Sm-N (smectic-nematic) transition temperature is 20 °C or greater)	
C=CC(=O)OCCCCCCOc1ccc(OC(=O)[C@H]2CC[C@H](C(=O)Oc3ccc(OC(=O)[C@H]4CC[C@H](C(=O)Oc5ccc(OCCCCCCOC(=O)C=C)cc5)CC4)c4c3SC(=C(C#N)C(=O)OC)S4)CC2)cc1 [IIIa-3]	131	10	<5		240 °C		
C=CC(=O)OCCCCCCOc1ccc(OC(=O)[C@H]2CC[C@H](C(=O)Oc3ccc(OC(=O)[C@H]4CC[C@H](C(=O)Oc5ccc(OCCCCCCOC(=O)C=C)cc5)CC4)c4c3SC(=C(C#N)C(=O)OCCC(C)(C)O)S4)CC2)cc1 [IIIa-7]	106	40	20		157 °C		
C=CC(=O)OCCOC(=O)CCC(=O)OCCc1ccc(OC(=O)[C@H]2CC[C@H](C(=O)Oc3cc(C)c(OC(=O)[C@H]4CC[C@H](C(=O)Oc5ccc(CCOC(=O)CCC(=O)OCCOC(=O)C=C)cc5)CC4)c4c3SC(=C(C#N)C#N)S4)CC2)cc1 [IV-1]	148	35	15	A (solubility improved twofold or greater in plural solvents or a single solvent)	172 °C	A (decrease in melting point or Sm-N (smectic-nematic) transition temperature is 20 °C or greater)	
C=CC(=O)OCCOC(=O)CCC(=O)OCCc1ccc(OC(=O)[C@H]2CC[C@H](C(=O)Oc3cc(OCC)c(OC(=O)[C@H]4CC[C@H](C(=O)Oc5ccc(CCOC(=O)CCC(=O)OCCOC(=O)C=C)cc5)CC4)c4c3SC(=C(C#N)C#N)S4)CC2)cc1 [IV-10]	95	40	40		99 °C		
C=CC(=O)OCCCCCCOc1ccc(OC(=O)[C@H]2CC[C@H](C(=O)Oc3cc(C)c(OC(=O)[C@H]4CC[C@H](C(=O)Oc5ccc(OCCCCCCOC(=O)C=C)cc5)CC4)c4c3SC(=C(C#N)C#N)S4)CC2)cc1 [IVa-1]	189	10	<5		>250 ^ ° C.		
C=CC(=O)OCCCCCCOc1ccc(OC(=O)[C@H]2CC[C@H](C(=O)Oc3ccc(OC(=O)[C@H]4CC[C@H](C(=O)Oc5ccc(OCCCCCCOC(=O)C=C)cc5)CC4)c4c3SC(=C(C#N)C#N)S4)CC2)cc1 [Ia-1]	148	10	<5		>210 ^ ° C.		183
C=CC(=O)OCCCCOC(=O)[C@H]1CC[C@H](C(=O)O[C@H]2CC[C@H](C(=O)Oc3ccc(OC(=O)[C@H]4CC[C@H](OC(=O)[C@H]5CC[C@H](C(=O)OCCCCOC(=O)C=C)CC5)CC4)c4c3SC(=C(C#N)C#N)S4)CC2)CC1 [Ib-1]	170	10	<5	C	206 °C	C (decrease in melting point or Sm-N (smectic-nematic) transition temperature is less than 5° C.)	
C=CC(=O)OCCCCOc1ccc(C(=O)Oc2ccc(C(=O)Oc3ccc(OC(=O)c4ccc(OC(=O)c5ccc(OCCCCOC(=O)C=C)cc5)cc4)c4c3SC(=C(C#N)C#N)S4)cc2)cc1 [Ic-1]	185	<10	<5	C	>210^ ° C.	C (decrease in melting point or Sm-N (smectic-nematic) transition temperature is less than 5° C.)	
C=CC(=O)OCCOC(=O)CCC(=O)OCCc1ccc(OC(=O)[C@H]2CC[C@H](C(=O)Oc3ccc(OC(=O)[C@H]4CC[C@H](C(=O)Oc5ccc(CCOC(=O)CCC(=O)OCCOC(=O)C=C)cc5)CC4)c(/C=N/Nc4nc5ccccc5s4)c3)CC2)cc1 [VI-1]	134	35	20	A (solubility improved twofold or greater in plural solvents or a single solvent)	190 °C	A (decrease in melting point or Sm-N (smectic-nematic) transition temperature is 20 °C or greater)	
